Among the data in patent US20070173488A1, “Pyrazolothiazole Protein Kinase Modulators” (SGX Pharmaceuticals, Inc., priority 2005, published 2007) are IC50 values, retold here.

Where only a bound is given, the exact number is not on record here.

In the test the target is T1, AurA (Homo sapiens, UniProt O14965).
T1 construct: made in house; host or cells: Sf9 insect cells
T1 sequence (O14965 1-403): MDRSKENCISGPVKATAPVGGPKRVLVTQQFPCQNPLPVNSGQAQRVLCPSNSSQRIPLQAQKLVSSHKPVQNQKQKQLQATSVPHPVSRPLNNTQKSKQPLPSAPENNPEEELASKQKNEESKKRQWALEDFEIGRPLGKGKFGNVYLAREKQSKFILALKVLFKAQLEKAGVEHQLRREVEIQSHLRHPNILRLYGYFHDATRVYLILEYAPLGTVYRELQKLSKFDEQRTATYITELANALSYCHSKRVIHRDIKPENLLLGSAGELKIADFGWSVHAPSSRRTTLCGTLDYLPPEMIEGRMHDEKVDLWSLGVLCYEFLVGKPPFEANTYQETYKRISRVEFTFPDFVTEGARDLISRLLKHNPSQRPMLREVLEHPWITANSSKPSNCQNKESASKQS
In words: AurA Luminescence-based Enzyme Assay (Kinase-Glo). The test is classed as biochemical. An excerpt: Homogeneous luminescence-based inhibitor screening assays were developed for c-Abl, MET, AurA, and PDK1 kinases (among others). Each of these assays made use of an ATP depletion assay (Kinase-Glo™, Promega Corporation, Madison, Wis.) to quantitate kinase activity. The Kinase-Glo™ format uses a thermostable luciferase to generate luminescent signal from ATP remaining in solution following the kinase reaction. The luminescent signal is inversely correlated with the amount of kinase activity.
Dose response was analyzed using the equation: y=min+{(max−min)/(1 +10^[compound]-logIC50)}, where y is the observed initial slope, max=the slope in the absence of inhibitor, min=the slope at infinite inhibitor, and the IC50 is the [compound] that corresponds to ½ the total observed amplitude (Amplitude=max−min).
The Sf9 insect cell pellets (˜18 g) produced from 6 L of cultured cells expressing human Aurora-2 were resuspended in 50 mM Na Phosphate pH 8.0, 500 mM NaCl, 10% glycerol, 0.2% n-octyl-β-D-glucopyranoside (BOG) and 3 mM β-Mercaptoethanol (BME). One tablet of Roche Complete, EDTA-free protease inhibitor cocktail (Cat# 1873580) and 85 units Benzonase (Novagen Cat#70746-3)) were added per 1 L of original culture. Pellets were resuspended in approximately 50 ml per 1 L of original culture and were then sonicated on ice with two 30-45 sec bursts (100% duty cycle). Debris was removed by centrifugation and the supernatant was passed through a 0.8 μm syringe filter before being loaded onto a 5 ml Ni^2+ HiTrap column (Pharmacia). The column was washed with 6 column volumes of 50 mM Na Phosphate pH 8.0, 500 mM NaCl, 10% glycerol, 3 mM BME. The protein was eluted using a linear gradient of the same buffer containing 500 mM Imidazole. The eluant (24 ml) was cleaved overnight at 4° C. in a buffer containing 50 mM Na Phosphate pH 8.0, 500 mM NaCl, 10% glycerol, 3 mM BME and 10,000 units of TEV (Invitrogen Cat#10127-017). The protein was passed over a second nickel affinity column as described above; the flow-through was collected. The cleaved protein fractions were combined and concentrated using spin concentrators. Further purification was done by gel filtration chromatography on a S75 sizing column in 50 mM Na Phosphate (pH 8.0), 250mM NaCl, 1 mM EDTA, 0.1 mM AMP-PNP or ATP buffer, and 5 mM DTT. The cleanest fractions were combined and concentrated to approximately 8-11 mg/ml, and were either flash frozen in liquid nitrogen in 120 μl aliquots and stored at −80° C., or stored at 4° C.
AurA Luminescence-based Enzyme Assay
Materials: Kemptide peptide substrate=LRRASLG (Biopeptide, San Diego, Calif.), ATP (Sigma Cat#A-3377, FW=551), HEPES buffer, pH 7.5, 10% Brij 35 (Calbiochem Cat# 203728), MgCl2, Staurosporine (Streptomyces sp. Sigma Cat#85660-1MG), white Costar 384-well flat -bottom plate (VWR Cat#29444-088), Autophosphorylated AurA kinase (see below), Kinase-Glo™ (Promega Cat#V6712).
Stock Solutions: 10 mM Kemptide peptide (7.72 mg/ml in water), stored at −20° C.; 100 mM HEPES buffer +0.015% Brij 35, pH 7.5 (5 ml 1M HEPES stock +75 μL 10% Brij 35+45 ml miliQH2O); 10 mM ATP (5.51 mg/ml in dH2O) stored at −20° C. (diluted 50 μl into total of 10 ml miliQH2O daily=50 μM ATP working stock); 100 mM MgCl2; 200 μM Staurosporine, 2× Kinase-Glo™ reagent (made fresh or stored at −20° C.).
AurA Autophosphorylation Reaction: ATP and MgCl2 were added to 1-5 mg/ml AurA at final concentrations of 10 mM and 100 mM, respectively. The autophosphorylation reaction was incubated at 21° C. for 2-3 h. The reaction was stopped by the addition of EDTA to a final concentration of 50 mM, and samples were flash frozen with liquid N2 and stored at −80° C.
Standard Assay Setup for 384-well format (20 μl kinase reaction, 40 μL detection reaction): 10 mM MgCl2; 0.2mM Kemptide peptide; 1 μl test compound (in DMSO); 0.3 μg/ml Autophosphorylated AurA kinase; 10 μM ATP; 100 mM HEPES+0.015% Brij buffer. Positive controls contained DMSO with no test compound. […]
(Kinase-Glo reads ATP consumption through a luciferase reaction.)

What is called IC50 is the concentration that inhibits the measured activity by half. High values mean a need for much substance, low ones inhibition by little substance. `O=C(Nc1cc[nH]n1)Nc1nc2[nH]nc(-n3cncc3-c3ccccc3Cl)c2s1` [1-{3-[5-(2-Chloro-phenyl)-imidazol-1-yl]-1H-pyrazolo[3,4-d]thiazol-5-yl}-3-(1H-pyrazol-3-yl)-urea] had a concentration for half-maximal inhibition (IC50) of 1 to 10 µM.
As for `O=C(Nc1nc2[nH]nc(-n3cncc3-c3ccc4ccccc4c3)c2s1)C1CC1` [Cyclopropanecarboxylic acid [3-(5-naphthalen-2-yl-imidazol-1-yl)-1H-pyrazolo[3,4-d]thiazol-5-yl]-amide], the figure is 1 to 10 µM.
Next, `O=C(Nc1nc2[nH]nc(-n3cncc3-c3ccccc3)c2s1)C1CC1` [Cyclopropanecarboxylic acid [3-(5-phenyl-imidazol-1-yl)-1H-pyrazolo[3,4-d]thiazol-5-yl]-amide]: 1 to 10 µM; `O=C(Nc1nc2[nH]nc(-n3cncc3-c3ccccn3)c2s1)C1CC1` [Cyclopropanecarboxylic acid [3-(5-pyridin-2-yl-imidazol-1-yl)-1H-pyrazolo[3,4-d]thiazol-5-yl]-amide]: over 10 µM; `O=C(Nc1nc2[nH]nc(-n3cncc3-c3cc(Cl)cc(Cl)c3Cl)c2s1)C1CC1` [Cyclopropanecarboxylic acid {3-[5-(2,3,5-trichloro-phenyl)-imidazol-1-yl]-1H-pyrazolo[3,4-d]thiazol-5-yl}-amide]: 0.1 to 1 µM.
`O=C(Nc1nc2[nH]nc(-n3cncc3-c3c(Cl)ccc(Cl)c3Cl)c2s1)C1CC1` [Cyclopropanecarboxylic acid {3-[5-(2,3,6-trichloro-phenyl)-imidazol-1-yl]-1H-pyrazolo[3,4-d]thiazol-5-yl}-amide]: the IC50 was under 0.1 µM.
For the compound `O=C(Nc1nc2[nH]nc(-n3cncc3-c3cccc(F)c3F)c2s1)C1CC1` [Cyclopropanecarboxylic acid {3-[5-(2,3-difluoro-phenyl)-imidazol-1-yl]-1H-pyrazolo[3,4-d]thiazol-5-yl}-amide], the IC50 lay in the range of 1 to 10 µM.
Next, `O=C(Nc1nc2[nH]nc(-n3cncc3-c3c(Cl)cccc3Cl)c2s1)C1CC1` [Cyclopropanecarboxylic acid {3-[5-(2,6-dichloro-phenyl)-imidazol-1-yl]-1H-pyrazolo[3,4-d]thiazol-5-yl}-amide]: under 0.1 µM.
As for `COc1ccc2nc(Cl)c(-c3cncn3-c3n[nH]c4nc(NC(=O)C5CC5)sc34)cc2c1` [Cyclopropanecarboxylic acid {3-[5-(2-chloro-6-methoxy-quinolin-3-yl)-imidazol-1-yl]-1H-pyrazolo[3,4-d]thiazol-5-yl}-amide], the figure is over 10 µM.
Next, `O=C(Nc1nc2[nH]nc(-n3cncc3-c3ccccc3Cl)c2s1)C1CC1` [Cyclopropanecarboxylic acid {3-[5-(2-chloro-phenyl)-imidazol-1-yl]-1H-pyrazolo[3,4-d]thiazol-5-yl}-amide]: under 0.1 µM; `NC(=O)COc1ccc(-c2cncn2-c2n[nH]c3nc(NC(=O)C4CC4)sc23)c(Cl)c1` [Cyclopropanecarboxylic acid {3-[5-(4-carbamoylmethoxy-2-chloro-phenyl)-imidazol-1-yl]-1H-pyrazolo[3,4-d]thiazol-5-yl}-amide]: 0.1 to 1 µM.
On to `CS(=O)(=O)c1ccc(F)cc1-c1cncn1-c1n[nH]c2nc(NC(=O)C3CC3)sc12` [Cyclopropanecarboxylic acid {3-[5-(5-fluoro-2-methanesulfonyl-phenyl)-imidazol-1-yl]-1H-pyrazolo[3,4-d]thiazol-5-yl}-amide], for which the IC50 lay in the range of 0.1 to 1 µM.
